As usually defined, the IC50 is the concentration that gives 50% inhibition.

Each structure is given as a SMILES string.

The first assay has as its system P493-6 (myc "on") cells. Kind of assay: Cell Proliferation Assay. In kind it is cell-based. The note with it: P493-6, 72 h, read-out: Cell prolif P493 72 h IC50, P493 cells, 72 h. The protocol:
P493-6 (myc “on”) cells were maintained in growth media (RPMI-1640, 10% FBS, 2 mM glutamine, 100 units/ml Penicillin and 100 μg/ml streptomycin) at 37° C. with 5% CO2. For compound assay, P493-6 cells were plated in 96-well V-bottom plates on the day of compound addition in 50 μl of growth media at a cell density of 200,000 cells/ml (10,000 cells/well). Compounds were serially diluted in 100% DMSO at 200-times the final concentration. Compounds were diluted 100-fold into growth media and then 50 μl of this mixture was added to cell plates making the final concentration of DMSO 0.5%. Cells were incubated with compound for 72 hrs at 37° C. with 5% CO2 and analyzed for antiproliferative effects either by Cell Titer Glo (Promega) or FACS analysis using the Viacount (Millipore) kit on the Guava instrument.
In the case of `O=C(Cc1ccccc1)Nc1nnc(CCSCCc2nnc(NC(=O)Cc3ccccc3)s2)s1` [Compound 1, N,N′-(5,5′-(thiobis(ethane-2,1-diyl))bis(1,3,4-thiadiazole-5,2-diyl))bis(2-phenylacetamide)], the IC50 came to 0.47 µM.
Consider `CC(C)CC(=O)Nc1nnc(CCSCCc2nnc(NC(=O)CC(C)C)s2)s1` [Compound 4], for which the 50% inhibitory concentration (IC50) was more than 50 µM.
For the compound `CC(=O)OCC(=O)Nc1nnc(CCSCCc2nnc(NC(=O)COC(C)=O)s2)s1` [Compound 5], the IC50 was more than 50 µM.
On to `CN(C(=O)Cc1ccccc1)c1nnc(CCSCCc2nnc(N(C)C(=O)Cc3ccccc3)s2)s1` [Compound 6], for which the IC50 was 2.7 µM.
With `CCCC(=O)OCN(C(=O)Cc1ccccc1)c1nnc(CCSCCc2nnc(NC(=O)Cc3ccccc3)s2)s1` [Compound 7], the IC50 was 1 µM.
`CCCC(=O)OCN(C(=O)Cc1ccccc1)c1nnc(CCSCCc2nnc(N(COC(=O)CCC)C(=O)Cc3ccccc3)s2)s1` [Compound 8]: the IC50 is 1.6 µM.
As to `CC(CCc1nnc(NC(=O)Cc2ccccc2)s1)CCc1nnc(NC(=O)Cc2ccccc2)s1` [Compound 9], the IC50 was more than 50 µM.
For `CC(C)(CCc1nnc(NC(=O)Cc2ccccc2)s1)CCc1nnc(NC(=O)Cc2ccccc2)s1` [Compound 10], the IC50 is more than 50 µM.
`O=C(Cc1ccccc1)Nc1nnc(CCCCCc2nnc(NC(=O)Cc3ccccc3)s2)s1` [Compound 11]: the IC50 is 0.89 µM.
As to `O=C(CN1CCOCC1)Nc1nnc(CCSCCc2nnc(NC(=O)CN3CCOCC3)s2)s1` [Compound 12], the 50% inhibitory concentration (IC50) was determined as 36 µM.
Turning to `CC(=O)OCC(C(=O)Nc1nnc(CCSCCc2nnc(NC(=O)C(COC(C)=O)c3ccccc3)s2)s1)c1ccccc1` (centres unmarked) [Compound 14], the concentration for half-maximal inhibition (IC50) worked out at 1.8 µM.
Still for that read-out and setting: then `CC(C)(C)C(=O)OCN(C(=O)Cc1ccccc1)c1nnc(CCSCCc2nnc(NC(=O)Cc3ccccc3)s2)s1` [Compound 15], with 1.2 µM; and `CC(C)(C)C(=O)OCN(C(=O)Cc1ccccc1)c1nnc(CCSCCc2nnc(N(COC(=O)C(C)(C)C)C(=O)Cc3ccccc3)s2)s1` [Compound 16], with 0.8 µM; and `C=CCCC(=O)Nc1nnc(CCSCCc2nnc(NC(=O)CCC=C)s2)s1` [Compound 18], with 8.2 µM.
As for `CC(C(=O)Nc1nnc(CCSCCc2nnc(NC(=O)C(C)c3ccccc3)s2)s1)c1ccccc1` (centres unmarked) [Compound 19], the IC50 was found to be 1.7 µM.
Take `CC(C(=O)Nc1nnc(CCSCCc2nnc(N)s2)s1)c1ccccc1` (centres unmarked) [Compound 20]: the IC50 came to 2.6 µM.
As to `O=C(Cc1ccccc1)Nc1nnc(CCCCc2nnc(NC(=O)Cc3ccccc3)s2)s1` [Compound 21, N,N′-[5,5′-(butane-1,4-diyl)-bis(1,3,4-thiadiazole-5,2-diyl)]-bis(2-phenylacetamide)], the half-inhibitory concentration (IC50) worked out at 0.02 µM.
On to `O=C(Nc1nnc(CCSCCc2nnc(NC(=O)[C@@H]3CCCN3C(=O)C(F)(F)F)s2)s1)[C@@H]1CCCN1C(=O)C(F)(F)F` [Compound 22], for which the IC50 was more than 50 µM.
Take `Nc1nnc(CCSCCc2nnc(NC(=O)[C@@H]3CCCN3C(=O)C(F)(F)F)s2)s1` [Compound 23]: the half-maximal inhibitory concentration (IC50) was more than 50 µM.
Regarding `CC(=O)Nc1nnc(CCSCCc2nnc(NC(=O)Cc3ccccc3)s2)s1` [Compound 25], the IC50 worked out at 1.5 µM.
Same read-out and setting: then `CC(=O)OCC(=O)Nc1nnc(CCSCCc2nnc(NC(=O)Cc3ccccc3)s2)s1` [Compound 26], with 0.7 µM; and `O=C(Cc1ccccc1)Nc1nnc(CCSCCc2nnc(N(COC(=O)OCCCN3CCOCC3)C(=O)Cc3ccccc3)s2)s1` [Compound 27], with 0.47 µM.
Regarding `O=C(Nc1nnc(CCCCCc2nnc(NC(=O)C(CO)c3ccccc3)s2)s1)C(CO)c1ccccc1` (centres unmarked) [Compound 30], the IC50 turned out to be 2.5 µM.
Turning to `COC(=O)c1cccc(NC(=O)Nc2nnc(CCSCCc3nnc(NC(=O)Nc4cccc(C(=O)OC)c4)s3)s2)c1` [Compound 31], the 50% inhibitory concentration (IC50) turned out to be 4.3 µM.
As to `CC(C)[C@H](N)C(=O)Nc1nnc(CCSCCc2nnc(NC(=O)Cc3ccccc3)s2)s1` [Compound 32], the 50% inhibitory concentration (IC50) turned out to be 11 µM.
On to `CC(C)[C@H](NC(=O)OC(C)(C)C)C(=O)Nc1nnc(CCSCCc2nnc(NC(=O)Cc3ccccc3)s2)s1` [Compound 33], for which the half-inhibitory concentration (IC50) was determined as 5.3 µM.
In the case of `CC(C)[C@H](NC(=O)OC(C)(C)C)C(=O)Nc1nnc(CCSCCc2nnc(NC(=O)[C@@H](NC(=O)OC(C)(C)C)C(C)C)s2)s1` [Compound 34], the IC50 was more than 50 µM.
Regarding `O=C(Cc1ccccc1)Nc1nnc(CCSCCc2nnc(NC(=O)[C@@H]3CCCN3C(=O)C(F)(F)F)s2)s1` [Compound 35], the concentration for half-maximal inhibition (IC50) was 3.8 µM.
As to `O=C(Nc1nnc(CCSCCc2nnc(NC(=O)C3CCc4ccccc4C3)s2)s1)C1CCc2ccccc2C1` (centres unmarked) [Compound 37], the IC50 was more than 50 µM.
Turning to `O=C(Nc1nnc(CCSCCc2nnc(NC(=O)C3CC4CCC3C4)s2)s1)C1CC2CCC1C2` (centres unmarked) [Compound 38], the half-maximal inhibitory concentration (IC50) is 3.2 µM.
Turning to `O=C(Nc1nnc(CCSCCc2nnc(NC(=O)C3CCCO3)s2)s1)C1CCCO1` (centres unmarked) [Compound 39], the IC50 amounted to 4.5 µM.
For the compound `O=C(Nc1nnc(CCSCCc2nnc(NC(=O)C3CCCC3)s2)s1)C1CCCC1` [Compound 40], the IC50 worked out at 0.56 µM.
On the same count and under the same terms, then `O=C(Nc1nnc(CCSCCc2nnc(NC(=O)C3COc4ccccc4O3)s2)s1)C1COc2ccccc2O1` (centres unmarked) [Compound 41], with 33 µM.
As to `CC(C)[C@H](NC(=O)OC(C)(C)C)C(=O)Nc1nnc(CCCCc2nnc(NC(=O)[C@@H](NC(=O)OC(C)(C)C)C(C)C)s2)s1` [Compound 42], the IC50 is more than 50 µM.
With `O=C(COc1ccccc1)Nc1nnc(CCCCc2nnc(NC(=O)COc3ccccc3)s2)s1` [Compound 43], the IC50 was more than 50 µM.
As for `CC(CCc1nnc(NC(=O)Cc2ccccc2)s1)Cc1nnc(NC(=O)Cc2ccccc2)s1` (centres unmarked) [Compound 44], the concentration for half-maximal inhibition (IC50) was found to be 2.6 µM.
Regarding `O=C(Nc1nnc(CCCCc2nnc(NC(=O)C(F)(F)F)s2)s1)C(F)(F)F` [Compound 45], the half-maximal inhibitory concentration (IC50) is more than 50 µM.
Same read-out and setting: then `CC(C)(C)OC(=O)N[C@@H](C(=O)Nc1nnc(CCSCCc2nnc(NC(=O)[C@H](NC(=O)OC(C)(C)C)c3ccccc3)s2)s1)c1ccccc1` [Compound 46], with 16 µM; and `N[C@@H](C(=O)Nc1nnc(CCSCCc2nnc(NC(=O)[C@H](N)c3ccccc3)s2)s1)c1ccccc1` [Compound 47], with 35 µM.
Regarding `O=C(CC1CCCCC1)Nc1nnc(CCSCCc2nnc(NC(=O)CC3CCCCC3)s2)s1` [Compound 48], the IC50 turned out to be 0.42 µM.
Still for that read-out and setting: then `C[C@H](NC(=O)OC(C)(C)C)C(=O)Nc1nnc(CCSCCc2nnc(NC(=O)[C@H](C)NC(=O)OC(C)(C)C)s2)s1` [Compound 49], with 17 µM; and `O=C(Nc1nnc(CCSCCc2nnc(NC(=O)C3Cc4ccccc4O3)s2)s1)C1Cc2ccccc2O1` (centres unmarked) [Compound 50], with 8.2 µM.
Regarding `O=C(Nc1nnc(CCCCc2nnc(NC(=O)C3Cc4ccccc4O3)s2)s1)C1Cc2ccccc2O1` (centres unmarked) [Compound 51], the half-maximal inhibitory concentration (IC50) stood at 1.3 µM.
The same measure, in the same setting: then `O=C(Nc1nnc(CCCCc2nnc(NC(=O)C3COc4ccccc4O3)s2)s1)C1COc2ccccc2O1` (centres unmarked) [Compound 52], with 30 µM.

Staying with this assay, now noted: P493-6, read-out: Cell prolif P493 72 h IC50; P493 cells, 72 h.
On to `O=C(Nc1nnc(CCSCCc2nnc(NC(=O)c3ccccc3)s2)s1)c1ccccc1` [Compound 2], for which the IC50 is 0.63 µM.
The same measure, in the same setting: then `COc1ccc(C(=O)Nc2nnc(CCSCCc3nnc(NC(=O)c4ccc(OC)cc4)s3)s2)cc1` [Compound 3], with more than 50 µM; and `CC(=O)Nc1nnc(CCSCCc2nnc(NC(C)=O)s2)s1` [Compound 13], with 12 µM.

These data come from patent publication US20150004134A1, “TREATMENT OF CANCER WITH HETEROCYCLIC INHIBITORS OF GLUTAMINASE” (Calithera Biosciences, Inc., priority 2012, published 2015).
